1 compound from patent US20230212129A1, “QUINAZOLINE DERIVATIVES USEFUL AS SELECTIVE HDAC6 INHIBITORS” (AnnJi Pharmaceutical Co., Ltd., priority 2020, published 2023) can be followed below.

Experiment [1] has as its system BioMAP Fibrosis panel (REMyoF, SAEMyoF, MyoF systems). Nature of the experiment: BioMAP Fibrosis panel cytokine/biomarker profiles. Format: cell-based. On the procedure: The HDAC6 inhibitor compounds were tested in a commercially available platform, BioMAP, for the cytokine profiles in related to tissue injuries. The BioMAP Fibrosis panel included 3 systems stimulated to model TGFβ and TNFα driven myofibroblast differentiation during chronic inflammation and wound healing in different tissue settings. Fibrotic disease of the kidney associated with end-stage renal failure was captured in the REMyoF system consisting of a co-culture of renal proximal tubule epithelial cells and adult fibroblasts. Interstitial lung diseases, including pulmonary fibrotic diseases such as idiopathic pulmonary fibrosis (IPF), was modeled by co-culturing small airway epithelial cells and adult fibroblasts in the SAEMyoF system. Both co-culture systems modeled the paracrine interaction between myofibroblasts and the proximally located epithelial cells, while the impact on fibroblasts alone was interrogated using the monoculture MyoF system. A signature BioMAP profile that is reflective of the changes in protein biomarker readouts within an individual system was generated for each testing compounds. Biomarker readouts selected for therapeutic and biological relevance were predictive for disease outcomes or specific drug effects, and was validated using agents with known clinical efficacy. Each readout was measured quantitatively by immune-based methods that detect protein (e.g., ELISA).

The test system of experiment [2] is cisplatin-induced neuropathy. The experiment in a line: Cisplatin-induced neuropathy, von Frey paw-withdrawal murine model. The note with it: oral once daily Day 16 to 29 (pregabalin 15 mg/kg one hour prior to test); vs cisplatin control; FIG. 4. Format: in vivo, Balb/c mice. On the procedure:
To understand whether COMPOUND 2 exerts neuron protective activities in cisplatin-induced neuropathy, a paw-withdrawal murine model is deployed. The 50% paw withdrawal threshold (PWT) to a static mechanical stimulus was assessed using von Frey filament and up-and-down method following the procedure described by Chaplan (1994). Mechanical allodynia, a painful sensation caused by innocuous stimuli like light touch, was assessed by the manual von Frey test once per week (on day 7, 14, 21, 28, […], and 42). The animals indicated sensation by pulling back its paw. The minimum force leading to withdrawal of the paw was regarded as the reflex threshold.
Balb/c mice weighing about 25±2 gram were given cisplatin intraperitoneally at the dose of 1.5 mg/kg for 5 consecutive days (cumulative dose of 7.5 mg/kg), followed by 5 days of recovery. The cisplatin administration cycle was repeated once more to reach a cumulative dose of 15 mg/kg to induce neuropathy. Test compounds, COMPOUND 2 and ACY1215, were orally administered once daily for 2 weeks (except for the weekends) from Day 16 to 29. Pregabalin, a drug known to provide transient pain relief, was administered at a dose of 15 mg/kg prior to each von Frey stimulus test to serve as the positive control.

The next experiment concerns Rat DRG cells. Nature of the experiment: Cisplatin-induced neurite degeneration in DRG cells. Format: cell-based. The settings on record: 0.3 μM with 0.5 mM cisplatin, 48 hours; p<0.05; FIG. 3. The procedure: Rat DRG cells were used to investigate the protective effect of HDAC6 inhibitors. DRG cells were treated with 0.5 mM of cisplatin with or without 0.3 μM of COMPOUND 2 or ACY1215 for 48 hours. The neurite area and the number of blebs (cell apoptosis) per image were calculated and their ratio values among the tested groups were compared and shown in FIG. 3.

Experiment [3] concerns paclitaxel-induced peripheral neuropathy. The experiment in a line: Paclitaxel-induced peripheral neuropathy, Von Frey test. It counts as in vivo, Sprague-Dawley (SD) rats. On the procedure:
Male Sprague-Dawley (SD) rats, weighing 320±30 grams, were given paclitaxel intraperitoneally at the dose of 6 mg/kg for 5 consecutive days with a total cumulative dose of 30 mg/kg to induce chemotherapy-induced peripheral neuropathy.
Compound 2 or vehicle was administered orally once daily for 2 weeks during the weekdays (Days 8 to 12 and 15-19). Mechanical allodynia is assessed by the manual Von Frey test once per week. The animals are given 20 to 30 minutes to acclimatize prior to the testing. The paw is pressed with a series of 8 manual Von Frey monofilaments with logarithmically incremental stiffness [3.61 (0.4 g), 3.84 (0.6 g), 4.08 (1.0 g), 4.31 (2.0 g), 4.56 (4.0 g), 4.93 (8.0 g), 5.18 (15.0 g) and (26.0 g)]. The manual Von Frey monofilament was applied perpendicularly from underneath the mesh floor to the central plantar surface with sufficient force to cause a slight buckling against the paw, and held for approximately 6-8 seconds. A positive response was noted if the paw is sharply withdrawn; ambulation is considered an ambiguous response, and in such cases, the stimulus is reapplied. The 50% paw withdrawal threshold (PWT) to a static mechanical stimulus was assessed using Von Frey filament and up-and-down method.
Von Frey data were presented as mean±SEM (Standard Error of the Mean). Treatment groups were compared to the paclitaxel control using Student's T-test. A p value <0.05 is considered to represent a significant difference.

As for `CCc1nc2cc(F)c(/C=C/C(=O)NO)cc2c(=O)n1-c1c(C)cccc1C` [Compound 2, (E)-3-(3-(2,6-dimethylphenyl)-2-ethyl-7-fluoro-4-oxo-3,4-dihydroquinazolin-6-yl)-N-hydroxyacrylamide], in experiment [1] (BioMAP readouts), the fibrosis-related matrix activities result is “decreased TIMP-1, MMP-1, Collagen I, Collagen III, MMP-9”; the inflammation-related activities entry was “decreased M-CSF, VCAM-1, sIL-6, MCP-1; increased I-TAC”; the myofibroblast activation-related activities result was “decreased αSMA, N-Cadherin”; the “tissue remodeling/wound healing activities” value is listed as “decreased EGFR, tPA, uPA, bFGF, sVEGF”. Further, in experiment [1] (compared with nintedanib), the “activities on cytokines contributing to fibrosis” value was “marked activities in decreasing TNF-α, IL-1, IL-6, MMP-9, VEGF, and collagen I”. The “mean withdrawal threshold (50% PWT)” value in experiment [2] was “significantly increased the mean withdrawal threshold”. In addition, in the experiment with Rat DRG cells, the “neurite degeneration (neurite area and number of blebs ratio)” value was “significantly lesser degree of neurite degeneration”. In experiment [3] (15 and 30 mg/kg), the “duration of effect after the dosing was stopped” value is given as at least 14 days. In addition, the “sensitivity to the mechanical stimulation” value in experiment [3] (15 and 30 mg/kg, starting from study Day 14) is recorded as “significantly reduced the sensitivity”. For the same compound, the “pain-relief after dosing was stopped” value in experiment [3] (FIG. 7) is listed as “maintained for at least two weeks after dosing was stopped”. Moreover, the “threshold of mean withdrawal force” value in experiment [3] (vs vehicle, from study Day 14, oral once daily Days 8 to 12 and 15-19) was “significant increase in the threshold of mean withdrawal force”.
